In US9850247B2 (Almac Discovery Limited, priority 2013, dated 2017) one finds microsomal CLint, IC50 and EC50 data, which are given here for 15 compounds.

The nature of data set [1]: CLint estimates using human liver microsomes (Method 4). Format: in vitro ADME. The conditions noted are these: pH 7.4, 1 μM compound, read-out: Mics - CLint (HLM CLint). The essentials: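 Compound at 1 μM (0.1% DMSO) incubated with human liver microsomes (0.5 mg protein/mL) in 0.1 M phosphate pH 7.4 at 37 °C, started with 1 mM NADPH. Samples taken 2–50 min, quenched in methanol, measured by LC/MS/MS (MRM). Half-life and CLint derived from the slope of ln peak area versus time.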

The subject of data set [2] is phospho-cdc2 (Tyr15) in HT-29 cells. The data set can be described thus: Effect on phosphorylation of cdc2 at Tyr15, PathScan ELISA (Method 2). The conditions noted are these: Homo sapiens, 8 h, eight hours incubation, read-out: HT29 pCDC2 method 2. Format: cell-based. On the procedure: Method 2: Determining the Effect of Compounds on the phosphorylation of cdc2 at Tyr15
The colorectal cancer cell lines HT-29 and HCT-116 were purchased from the ATCC and routinely maintained in McCoy's Medium (Invitrogen) supplemented with 10% Foetal Calf Serum.
The cells were trypsinised from their growing vessel and counted, 100 μL of cell suspension containing 6000 cells was pipetted into black 96 well Co-star plates and incubated overnight to allow adherence to the surface at a temperature of 37° C. and an atmosphere of 5% CO2. Test compounds were formulated in DMSO and diluted in foetal calf serum supplemented medium. Incubating medium was removed by aspiration and diluted drug supplemented medium added to each well.
The plate was returned to the incubator for an additional eight hours at 37° C. and an atmosphere of 5% CO2. Post incubation, the drug supplemented medium was aspirated from each well and the cells were washed once in ice-cold phosphate buffered saline (PBS). 100 μL of cell lysis buffer (Cell Signalling Technologies #9803) containing 20 mM Tris, 150 mM NaCl, 1 mM EDTA, 1 mM EGTA, 1% Triton-X100, 2.5 mM sodium pyrophosphate, 1 mM glycerophosphate, 1 mM Na3VO4 and 1 μg/mL leupeptin was added to each well of the 96 well plate and incubated at 4° C. for 30 min. The samples on the plate were snap frozen at −80° C. until required. Immediately before the continuation of the assay, the sample plate was thawed and centrifuged at 4° C. for 10 min and the supernatant transferred to secondary tubes or 96 well plate.
Cell supernatant was mixed in a ratio of 1:1 with sample dilutent buffer and vortexed for one minute. 100 μL of diluted sample was pipetted into pre-coated plates containing a rabbit polyclonal antibody for phospho-cdc2 (Tyr15) (Cell Signalling Technologies PathScan kit #7176). The plate was sealed and incubated overnight at 4° C.
The plate seal was removed and the well contents aspirated, followed by 3×5 min washes with 200 μL of diluted wash buffer. Between each wash the plate was tapped firmly onto blotting paper to ensure the removal of all kit solution. 100 μL of kit detection antibody was added to each well and the plate re-sealed and incubated at 37° C. for 1 h. Post incubation the plate was washed and processed in a similar manner to that previously described.
100 μL of horseradish peroxidise-linked secondary antibody was added to each test well, the plate sealed and incubated for thirty minutes at 37° C. Post incubation, the plate was washed as previously stated, followed by the addition of 100 μL of 3,3′,5,5′ tetramethylbenzidine (TMB reagent). The plate was sealed and incubated at RT for 30 min.
100 μL of stop solution was added to each well and the underside of the plate wiped with a lint-free tissue, prior to spectrophotometric determination. Absorbance from each well was read at 450 nm within 30 min of the addition of the stop solution.
The percentage of phospho-cdc2 was calculated compared to DMSO control and plotted versus the concentration of inhibitor using GraphPad Prism. Data was fitted using non-linear regression analysis and IC50 values generated.

For data set [3], the target named is T1, Wee-1 kinase (Homo sapiens, UniProt P30291).
T1 construct: purchased Invitrogen PV3817
Briefly: Measurement of Wee-1 kinase activity (ADP-Glo luminescent kit). Type of data set: biochemical. The essentials:
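Activated Wee-1 was pre-incubated 30 min at RT with compound in 40 mM Tris-HCl, 20 mM MgCl2, 0.1 mg/mL BSA and 2 mM DTT. The reaction was started with an aliquot of 2.0 μg/mL poly(Lys,Tyr 4:1) plus 30 μM ATP and run 1 h at RT. ADP-Glo luminescence gave IC50 by non-linear fit.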

Data set [4] deals with T2, human ether a go-go related gene (hERG) K′ channel (Homo sapiens, UniProt Q12809).
T2 construct: Essen BioScience
The data set can be described thus: hERG activity, IonWorks patch clamp electrophysiology (Method 6). Format: cell-based. On the procedure: Method 6: Determination of hERG Activity
Compounds were tested for inhibition of the human ether a go-go related gene (hERG) K′ channel using IonWorks patch clamp electrophysiology at Essen BioScience. 8-Point concentration-response curves of the effect of compound on hERG current as a percentage of pre-compound signal were generated using 3-fold serial dilutions from 11 μM and results are reported as IC50 in μM.

The subject of data set [5] is phospho-cdc2 (Tyr15) in HT-29 cells. Briefly: Effect on Cdc2 phosphorylation at Tyr15, Cell-Based ELISA Base Kit (Method 3). As to conditions: Homo sapiens, HT-29, 8 h, eight hours incubation, normalized to total cdc2, read-out: HT29 pCDC2 method 3. The essentials:
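HT-29 cells were treated with compounds for 8 h at 37 °C, then fixed in 4% formaldehyde. Phospho-cdc2 (Tyr15) and total cdc2 were read by dual-fluorogenic cell-based ELISA at 600/450 nm. Phospho signal was normalized to total cdc2 and expressed as % of DMSO control, and EC50 came from non-linear regression.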

Each structure is given as a SMILES string. Counter-ions that a name gives are not always drawn.

T2 sequence (Q12809 whole entry): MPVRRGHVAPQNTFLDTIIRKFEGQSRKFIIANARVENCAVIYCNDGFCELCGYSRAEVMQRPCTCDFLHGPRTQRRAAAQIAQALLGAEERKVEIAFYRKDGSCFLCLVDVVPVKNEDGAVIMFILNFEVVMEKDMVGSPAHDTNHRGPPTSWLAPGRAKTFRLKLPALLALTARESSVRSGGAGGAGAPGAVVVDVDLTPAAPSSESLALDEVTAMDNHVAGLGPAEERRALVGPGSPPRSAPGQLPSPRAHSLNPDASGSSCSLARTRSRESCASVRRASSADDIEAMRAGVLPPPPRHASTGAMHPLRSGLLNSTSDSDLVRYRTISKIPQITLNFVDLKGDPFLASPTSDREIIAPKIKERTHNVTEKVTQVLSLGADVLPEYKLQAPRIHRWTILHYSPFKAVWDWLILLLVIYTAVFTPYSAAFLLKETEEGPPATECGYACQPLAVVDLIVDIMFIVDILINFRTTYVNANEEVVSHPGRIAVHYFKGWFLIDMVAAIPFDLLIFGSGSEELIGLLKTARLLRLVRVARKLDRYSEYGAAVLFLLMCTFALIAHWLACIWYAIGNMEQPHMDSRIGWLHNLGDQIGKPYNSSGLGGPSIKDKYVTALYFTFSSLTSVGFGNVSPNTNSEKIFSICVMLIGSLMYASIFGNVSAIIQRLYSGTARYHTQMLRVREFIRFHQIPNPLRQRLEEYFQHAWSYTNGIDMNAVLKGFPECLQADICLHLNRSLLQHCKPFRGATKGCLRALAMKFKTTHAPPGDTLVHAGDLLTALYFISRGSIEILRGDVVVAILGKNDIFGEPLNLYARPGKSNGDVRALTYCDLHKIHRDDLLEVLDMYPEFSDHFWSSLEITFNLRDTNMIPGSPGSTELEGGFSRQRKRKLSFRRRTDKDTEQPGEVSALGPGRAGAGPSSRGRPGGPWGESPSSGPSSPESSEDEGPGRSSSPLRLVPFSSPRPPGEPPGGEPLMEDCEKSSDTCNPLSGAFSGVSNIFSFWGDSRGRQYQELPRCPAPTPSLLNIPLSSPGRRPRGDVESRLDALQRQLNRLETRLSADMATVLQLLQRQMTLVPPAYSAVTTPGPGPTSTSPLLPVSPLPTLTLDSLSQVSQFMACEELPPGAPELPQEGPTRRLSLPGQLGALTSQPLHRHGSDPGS
T1 sequence (P30291 whole entry): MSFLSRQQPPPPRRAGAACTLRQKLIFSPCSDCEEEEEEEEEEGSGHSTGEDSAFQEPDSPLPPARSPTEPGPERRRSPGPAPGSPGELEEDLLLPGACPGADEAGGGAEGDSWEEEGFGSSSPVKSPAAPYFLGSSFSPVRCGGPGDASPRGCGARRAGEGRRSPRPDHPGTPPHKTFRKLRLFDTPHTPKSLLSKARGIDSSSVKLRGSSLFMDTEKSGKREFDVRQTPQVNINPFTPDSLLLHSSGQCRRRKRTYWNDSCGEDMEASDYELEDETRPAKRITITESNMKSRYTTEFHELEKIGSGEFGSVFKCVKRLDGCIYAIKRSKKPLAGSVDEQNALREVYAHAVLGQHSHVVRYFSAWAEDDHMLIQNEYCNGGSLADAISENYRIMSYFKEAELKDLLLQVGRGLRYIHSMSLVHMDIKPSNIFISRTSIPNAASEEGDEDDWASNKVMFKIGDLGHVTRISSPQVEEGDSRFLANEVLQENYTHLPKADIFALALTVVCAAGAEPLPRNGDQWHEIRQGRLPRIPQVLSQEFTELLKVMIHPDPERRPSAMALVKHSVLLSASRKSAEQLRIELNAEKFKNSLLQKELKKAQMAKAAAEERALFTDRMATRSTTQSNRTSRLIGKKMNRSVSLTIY

Regarding `CN1c2nc(Nc3ccc4c(c3)CNCC4)ncc2C(=O)N(c2c(Cl)cccc2Cl)C1c1ccccc1` (racemic) [Example 23, (rac)-3-(2,6-Dichlorophenyl)-1-methyl-2-phenyl-7-((1,2,3,4-tetrahydroisoquinolin-7-yl)amino)-2,3-dihydropyrimido[4,5-d]pyrimidin-4(1H)-one], the microsomal CLint at 1 μM in data set [1] is 15 to 50 µL/min/mg. In addition, the IC50 in data set [2] was no less than 1000 nM; in data set [3], no less than 100 nM.
Taken in the same sequence, the figures for `CN1CN(c2c(Cl)cccc2Cl)C(=O)c2cnc(Nc3ccc(N4CCN(CC(=O)O)CC4)cc3)nc21` [Example 4, 2-(4-(4-((6-(2,6-Dichlorophenyl)-8-methyl-5-oxo-5,6,7,8-tetrahydropyrimido[4,5-d]pyrimidin-2-yl)amino)phenyl)piperazin-1-yl)acetic acid hydrochloride] were no more than 15 µL/min/mg, no less than 1000 nM and 10 to 100 nM.
Turning to `CN1CN(c2c(Cl)cccc2Cl)C(=O)c2cnc(Nc3ccc(CN4CCNCC4)cc3)nc21` [Example 12, 3-(2,6-Dichlorophenyl)-1-methyl-7-((4-(piperazin-1-ylmethyl)phenyl)amino)-2,3-dihydropyrimido[4,5-d]pyrimidin-4(1H)-one], the figures for the IC50 in data set [4], in data set [2] and in data set [3] were greater than 10000 nM, 100 to 1000 nM and 10 to 100 nM, respectively. In addition, the microsomal CLint at 1 μM in data set [1] is no more than 15 µL/min/mg.
Take `O=C1c2cnc(Nc3ccc(N4CCNCC4)cc3)nc2N2CCCC2N1c1c(Cl)cccc1Cl` (centres unmarked) [Example 28, 6-(2,6-Dichlorophenyl)-2-((4-(piperazin-1-yl)phenyl)amino)-6a,7,8,9-tetrahydropyrimido[5,4-e]pyrrolo[1,2-a]pyrimidin-5(6H)-one]: in data set [1], the microsomal CLint at 1 μM was no more than 15 µL/min/mg. The IC50 in data set [2] lay within 100 to 1000 nM; in data set [3] it was 10 to 100 nM.
Taken in the same sequence, the figures for `CN1CCN(Cc2ccc(Nc3ncc4c(n3)N(C)CN(c3c(Cl)cccc3Cl)C4=O)cc2)CC1` [Example 29, 3-(2,6-Dichlorophenyl)-1-methyl-7-((4-((4-methylpiperazin-1-yl)methyl)phenyl)amino)-2,3-dihydropyrimido[4,5-d]pyrimidin-4(1H)-one] were no less than 50 µL/min/mg, 100 to 1000 nM and 10 to 100 nM.
Taken in the same sequence, the figures for `CC1N(C)c2nc(Nc3ccc(N4CCNCC4)cc3)ncc2C(=O)N1c1c(Cl)cccc1Cl` (centres unmarked) [Example 26, 3-(2,6-Dichlorophenyl)-1,2-dimethyl-7-((4-(piperazin-1-yl)phenyl)amino)-2,3-dihydropyrimido[4,5-d]pyrimidin-4(1H)-one] were no more than 15 µL/min/mg, no less than 1000 nM and 10 to 100 nM.
As for `CN1CN(c2c(Cl)cccc2Cl)C(=O)c2cnc(Nc3ccc(N4CCNCC4)c(CO)c3)nc21` [Example 10, 3-(2,6-Dichlorophenyl)-7-((3-(hydroxymethyl)-4-(piperazin-1-yl)phenyl)amino)-1-methyl-2,3-dihydropyrimido[4,5-d]pyrimidin-4(1H)-one], the IC50 in data set [4] was greater than 10000 nM; in data set [2], 100 to 1000 nM; in data set [3], no more than 10 nM. Moreover, the microsomal CLint at 1 μM in data set [1] is no more than 15 µL/min/mg.
Turning to `CN1CN(c2c(Cl)cccc2Cl)C(=O)c2cnc(Nc3ccc(N4CCN[C@H](CO)C4)cc3)nc21` [Example 20, (S)-3-(2,6-Dichlorophenyl)-7-((4-(3-(hydroxymethyl)piperazin-1-yl)phenyl)amino)-1-methyl-2,3-dihydropyrimido[4,5-d]pyrimidin-4(1H)-one], the IC50 in data set [4] was greater than 10000 nM; in data set [2] it was 100 to 1000 nM; in data set [3], no more than 10 nM. Moreover, in data set [1], the microsomal CLint at 1 μM was 15 to 50 µL/min/mg.
For `CN1CN(c2c(Cl)cccc2Cl)C(=O)c2cnc(Nc3ccc(CN4CCOCC4)cc3)nc21` [Example 27, 3-(2,6-Dichlorophenyl)-1-methyl-7-((4-(morpholinomethyl)phenyl)amino)-2,3-dihydropyrimido[4,5-d]pyrimidin-4(1H)-one], the microsomal CLint at 1 μM in data set [1] is no less than 50 µL/min/mg. Further, the IC50 in data set [2] is 100 to 1000 nM; in data set [3] it was 10 to 100 nM.
Regarding `CN1CN(c2c(Cl)cccc2Cl)C(=O)c2cnc(Nc3ccc(S(C)(=N)=O)cc3)nc21` (racemic) [Example 30, (rac)-3-(2,6-Dichlorophenyl)-1-methyl-7-((4-(S-methylsulfonimidoyl)phenyl)amino)-2,3-dihydropyrimido[4,5-d]pyrimidin-4(1H)-one], the IC50 in data set [2] is no less than 1000 nM; in data set [3], 10 to 100 nM.
Regarding `O=C1c2cnc(Nc3ccc(N4CCNCC4)cc3)nc2NCN1c1c(Cl)cccc1Cl` [Example 9, 3-(2,6-Dichlorophenyl)-7-((4-(piperazin-1-yl)phenyl)amino)-2,3-dihydropyrimido[4,5-d]pyrimidin-4(1H)-one], the microsomal CLint at 1 μM in data set [1] was no more than 15 µL/min/mg. Besides, the IC50 lay in the range of 100 to 1000 nM in data set [2] and 10 to 100 nM in data set [3].
Consider `CCN1CCN(c2ccc(Nc3ncc4c(n3)N(C)CN(c3c(Cl)cccc3Cl)C4=O)cc2CO)CC1` [Example 72, 3-(2,6-dichlorophenyl)-7-((4-(4-ethylpiperazin-1-yl)-3-(hydroxymethyl)phenyl)amino)-1-methyl-2,3-dihydropyrimido[4,5-d]pyrimidin-4(1H)-one], for which, in data set [1], the microsomal CLint at 1 μM is no more than 15 µL/min/mg. Besides, the EC50 in data set [5] lay in the range of 100 to 1000 nM. For the same compound, the IC50 in data set [3] was no more than 10 nM.
Taken in the same sequence, the figures for `CNCc1cc(Nc2ncc3c(n2)N(C)CN(c2c(Cl)cccc2Cl)C3=O)ccc1N1CCN(C(C)=O)CC1` [Example 143, 7-((4-(4-acetylpiperazin-1-yl)-3-((methylamino)methyl)phenyl)amino)-3-(2,6-dichlorophenyl)-1-methyl-2,3-dihydropyrimido[4,5-d]pyrimidin-4(1H)-one] were no more than 15 µL/min/mg, no less than 1000 nM and no more than 10 nM.
For `CN1CN(c2c(Cl)cccc2Cl)C(=O)c2cnc(Nc3ccc(N4CCNCC4)c(F)c3)nc21` [Example 7, 3-(2,6-Dichlorophenyl)-7-((3-fluoro-4-(piperazin-1-yl)phenyl)amino)-1-methyl-2,3-dihydropyrimido[4,5-d]pyrimidin-4(1H)-one], in data set [1], the microsomal CLint at 1 μM was no more than 15 µL/min/mg. Also, the IC50 in data set [2] fell in the range of 100 to 1000 nM; in data set [3] it was 10 to 100 nM.
`CN(C)Cc1cc(Nc2ncc3c(n2)N(C)CN(c2c(Cl)cccc2Cl)C3=O)ccc1N1CCS(=O)(=O)CC1` [Example 149, 3-(2,6-dichlorophenyl)-7-((3-((dimethylamino)methyl)-4-(1,1-dioxidothiomorpholino)phenyl)amino)-1-methyl-2,3-dihydropyrimido[4,5-d]pyrimidin-4(1H)-one]: the microsomal CLint at 1 μM in data set [1] was no more than 15 µL/min/mg. In data set [5], the EC50 fell in the range of 100 to 1000 nM. Also, in data set [3], the IC50 is no more than 10 nM.
